Assay results reported in BindingDB's records for patent US20240043470 (Cornell University, 2024).

What was measured:
[1] = target: T1, Proteasome subunit beta type-8 (Homo sapiens, UniProt P28062); experiment: IC50 Determination
T1 sequence (P28062 whole entry): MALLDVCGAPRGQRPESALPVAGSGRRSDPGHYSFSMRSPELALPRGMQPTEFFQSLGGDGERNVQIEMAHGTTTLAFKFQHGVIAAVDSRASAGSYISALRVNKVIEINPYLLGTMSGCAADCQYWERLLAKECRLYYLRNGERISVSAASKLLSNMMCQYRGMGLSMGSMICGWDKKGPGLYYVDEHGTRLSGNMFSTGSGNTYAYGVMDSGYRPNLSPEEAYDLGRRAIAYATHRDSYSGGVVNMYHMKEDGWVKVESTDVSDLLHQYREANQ

[2] = target: T2, Proteasome subunit beta type-5 (Homo sapiens, UniProt P28074); experiment: IC50 Determination
T2 sequence (P28074 whole entry): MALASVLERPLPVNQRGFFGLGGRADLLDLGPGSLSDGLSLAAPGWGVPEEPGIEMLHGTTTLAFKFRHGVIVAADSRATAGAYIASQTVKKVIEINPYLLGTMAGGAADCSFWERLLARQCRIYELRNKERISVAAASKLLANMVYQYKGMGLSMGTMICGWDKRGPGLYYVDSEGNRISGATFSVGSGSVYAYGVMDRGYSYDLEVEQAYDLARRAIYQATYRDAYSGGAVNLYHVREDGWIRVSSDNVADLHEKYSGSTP

SMILES	IC50 [1]	IC50 [2]
O=C(N[C@H]1Cc2cccc(c2)Oc2ccc(cc2)C[C@@H](C(=O)NCc2ccccc2F)NC(=O)[C@H](CC(=O)N2CCC[C@@H]2c2ccccc2)NC1=O)c1ccccc1 [US20240043470, Compound 2-06]	19.3 µM	
O=C(NC1Cc2cccc(c2)Oc2ccc(cc2)CC(C(=O)NCc2ccccc2F)NC(=O)C(CC(=O)N2CCC[C@@H]2c2ccccc2)NC1=O)c1ccccc1 (stereo partly specified) [US20240043470, Compound 2-07]	26.8 µM	> 100 µM
O=C1CCc2cccc(c2)OCCCC[C@@H](C(=O)NCc2ccccc2F)NC(=O)[C@H](CC(=O)N2CCC[C@@H]2c2ccccc2)N1 [US20240043470, Compound 3-18]	3 µM	44.3 µM
CC(=O)N[C@H]1Cc2cccc(c2)Oc2ccc(cc2)C[C@@H](C(=O)NCc2ccccc2F)NC(=O)[C@H](CC(=O)N2CCC[C@@H]2c2ccccc2)NC1=O [US20240043470, Compound 2-04]	9.1 µM	30.7 µM
CC(=O)N[C@H]1CCCCOc2cccc(c2)C[C@@H](C(=O)NCC(F)(F)F)NC(=O)[C@H](CCc2ccccc2)NC1=O [US20240043470, Compound 3-03]		11.9 µM
O=C1N[C@@H](CC(=O)N2CCCC2)C(=O)N[C@H](C(=O)NCc2cccc3ccccc23)CCCCCCCCC[C@H]1Cc1ccccc1 [US20240043470, Compound 4-03]	3.52 µM	
CC(=O)NC1Cc2cccc(c2)Oc2ccc(cc2)CC(C(=O)NCc2ccccc2F)NC(=O)C(CC(=O)N2CCC[C@@H]2c2ccccc2)NC1=O (stereo partly specified) [US20240043470, Compound 2-05]	35.9 µM	88.4 µM
